Source: US10899737B2, “Piperazine carbamates and methods of making and using same” (Lundbeck La Jolla Research Center, Inc., priority 2016, dated 2021)

Tests used:
MAGL [1] = target: T1, MAGL (Mus musculus, UniProt O35678); test: Mouse brain proteomes from inhibitor treated mice, MAGL inhibition; format: in vivo; settings: 5 mg/kg oral gavage, C57Bl/6J mouse brain, 4 h following administration; read-out: MAGL % inh. 5 mg/kg (mouse)
T1 construct: Proteomes (mouse brain membrane fraction or cell lysates); from tissue; host or cells: mouse brain membrane fraction or cell lysates
T1 sequence (O35678 1-303): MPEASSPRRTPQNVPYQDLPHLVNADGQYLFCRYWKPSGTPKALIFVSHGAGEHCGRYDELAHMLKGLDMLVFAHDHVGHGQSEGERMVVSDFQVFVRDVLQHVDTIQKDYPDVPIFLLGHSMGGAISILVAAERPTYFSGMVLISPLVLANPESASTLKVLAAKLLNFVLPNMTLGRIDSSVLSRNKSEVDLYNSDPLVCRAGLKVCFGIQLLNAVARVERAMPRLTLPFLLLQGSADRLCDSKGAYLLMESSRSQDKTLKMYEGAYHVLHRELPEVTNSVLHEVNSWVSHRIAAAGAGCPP
Description: Preparation of Mouse Brain Proteomes from Inhibitor Treated Mice.
Inhibitors were administered to wild-type C57Bl/6J by oral gavage in a vehicle of polyethylene glycol. Each animal was sacrificed 4 h following administration and brain proteomes were prepared and analyzed according to previously established methods (See Niphakis, M. J., et al. (2011) ACS Chem. Neurosci. and Long, J. Z., et al. Nat. Chem. Biol. 5:37-44).

MAGL [2] = target: T2, MAGL (Homo sapiens, UniProt Q99685); test: In vitro competitive activity-based protein profiling (human), MAGL; format: biochemical; settings: for inhibition at 1 µM: 1 μM inhibitor, human proteome, 30 min preincubation at 37° C, read-out: MAGL % inh. 1 μM (human); for IC50: human PC3
T2 construct: Proteomes (human prefrontal cortex or cell membrane fractions); from tissue
T2 sequence (Q99685 1-303): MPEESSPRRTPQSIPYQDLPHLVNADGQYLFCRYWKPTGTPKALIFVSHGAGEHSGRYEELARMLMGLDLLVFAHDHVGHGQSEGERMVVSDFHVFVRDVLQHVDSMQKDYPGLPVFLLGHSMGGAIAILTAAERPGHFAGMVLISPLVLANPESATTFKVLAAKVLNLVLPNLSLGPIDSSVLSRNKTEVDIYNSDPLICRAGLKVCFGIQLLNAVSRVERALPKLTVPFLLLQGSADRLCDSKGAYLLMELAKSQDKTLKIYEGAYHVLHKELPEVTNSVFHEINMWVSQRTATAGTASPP
Method in brief: (§1)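 Human prefrontal cortex or cell membrane proteomes (1.0-2.0 mg/mL protein) preincubated 30 min at 37° C with inhibitor, then labeled 30 min RT with FP-Rh or JW912 probe. After SDS-PAGE, activity taken from fluorescent band intensity for each enzyme.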

MAGL [3] = target: T1, MAGL; test: In vitro competitive activity-based protein profiling (mouse), MAGL; format: biochemical; settings: for inhibition at 1 µM: 1 μM inhibitor, mouse brain membrane fraction or cell lysates, read-out: MAGL % inh. 1 μM (mouse); for IC50: mouse proteome
Method in brief: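 Mouse brain membrane fraction or cell lysate proteomes (50 μL, 1.0 mg/mL total protein) were preincubated with inhibitors at varying concentrations for 30 min at 37° C. FP-Rh (1.0 μL, 50 μM in DMSO) was then added for a further 30 min at 37° C. Samples were quenched with 4× SDS loading buffer and resolved by SDS-PAGE. MAGL activity was quantified from fluorescent gel band intensity using ImageJ 1.49 k.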

ABHD6 [4] = target: T3, ABHD6 (Homo sapiens, UniProt Q9BV23); test: In vitro competitive activity-based protein profiling (human), ABHD6; format: biochemical; settings: human PC3
T3 construct: Proteomes (human prefrontal cortex or cell membrane fractions); endogenous in cells; human prefrontal cortex
T3 sequence (Q9BV23 1-337): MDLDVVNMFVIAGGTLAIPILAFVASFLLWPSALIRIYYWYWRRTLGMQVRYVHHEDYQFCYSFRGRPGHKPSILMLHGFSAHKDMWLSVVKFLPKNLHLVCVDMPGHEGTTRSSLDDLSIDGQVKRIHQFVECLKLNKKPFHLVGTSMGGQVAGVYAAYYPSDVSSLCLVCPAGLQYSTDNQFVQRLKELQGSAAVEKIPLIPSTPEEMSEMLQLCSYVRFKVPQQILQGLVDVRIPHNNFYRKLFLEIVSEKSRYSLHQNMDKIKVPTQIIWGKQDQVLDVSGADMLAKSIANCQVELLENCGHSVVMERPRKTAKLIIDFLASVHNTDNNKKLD
Method in brief: as §1

ABHD6 [5] = target: T4, ABHD6 (Mus musculus, UniProt Q8R2Y0); test: In vitro competitive activity-based protein profiling (mouse), ABHD6; format: biochemical; settings: 1 μM inhibitor, mouse brain membrane fraction or cell lysates; read-out: ABHD6 % inh. 1 μM (mouse)
T4 construct: Proteomes (mouse brain membrane fraction or cell lysates); from tissue; host or cells: mouse brain membrane fraction or cell lysates
T4 sequence (Q8R2Y0 1-336): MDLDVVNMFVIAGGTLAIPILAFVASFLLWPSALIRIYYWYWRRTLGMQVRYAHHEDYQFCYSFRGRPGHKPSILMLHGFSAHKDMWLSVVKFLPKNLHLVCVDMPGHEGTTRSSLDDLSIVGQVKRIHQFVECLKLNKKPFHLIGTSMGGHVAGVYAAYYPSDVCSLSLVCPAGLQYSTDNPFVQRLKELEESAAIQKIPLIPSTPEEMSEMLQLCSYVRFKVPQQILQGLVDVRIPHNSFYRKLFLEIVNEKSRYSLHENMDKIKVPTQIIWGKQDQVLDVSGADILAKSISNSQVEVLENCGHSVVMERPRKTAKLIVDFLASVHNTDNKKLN
Method in brief: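 Mouse brain membrane proteome or cell lysate (1.0 mg/mL protein) preincubated 30 min at 37 °C with inhibitor, then labelled 30 min at 37 °C with FP-rhodamine probe. Remaining MAGL and ABHD6 activity quantified by in-gel fluorescence band intensity after SDS-PAGE; values are % inhibition at 1 μM.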

SMILES | inhibition at 5 mg/kg (MAGL [1]) | inhibition at 1 µM (MAGL [2]) | IC50 (MAGL [2]) | inhibition at 1 µM (MAGL [3]) | IC50 (MAGL [3]) | IC50 (ABHD6 [4]) | inhibition at 1 µM (ABHD6 [5])
O=C(OC(C(F)(F)F)C(F)(F)F)N1CCN(Cc2ccc(C(F)(F)F)cc2C2(C(=O)O)CCCC2)CC1 [Example 4, 1-(2-((4-(((1,1,1,3,3,3-Hexafluoropropan-2-yl)oxy)carbonyl)piperazin-1-yl)methyl)-5-(trifluoromethyl)phenyl)cyclopentane-1-carboxylic Acid] | ≥ 75% | ≥ 75% | ≤ 0.1 µM | ≥ 75% | ≤ 0.1 µM | 1 to 10 µM | 0 to 25%
O=C(OC(C(F)(F)F)C(F)(F)F)N1CCN(Cc2ccccc2C2(C(=O)O)CCCC2)CC1 [Example 36, 1-(2-((4-(((1,1,1,3,3,3-hexafluoropropan-2-yl)oxy)carbonyl)piperazin-1-yl)methyl)phenyl)cyclopentane-1-carboxylic acid] | ≥ 75% | ≥ 75% | ≤ 0.1 µM | ≥ 75% |  | 1 to 10 µM | 0 to 25%
O=C(O)C1CCN(C(=O)c2cc(CN3CCN(C(=O)OC(C(F)(F)F)C(F)(F)F)CC3)ccc2C(F)(F)F)CC1 [Example 46, 1-(5-((4-(((1,1,1,3,3,3-hexafluoropropan-2-yl)oxy)carbonyl)piperazin-1-yl)methyl)-2-(trifluoromethyl)benzoyl)piperidine-4-carboxylic acid] | 0 to 25% | ≥ 75% | ≤ 0.1 µM | ≥ 75% |  | 1 to 10 µM | 0 to 25%
Cc1ccc(CN2CCN(C(=O)OC(C(F)(F)F)C(F)(F)F)CC2)c(N2CCC(C(=O)O)CC2)c1F [Example 59, 1-(2-fluoro-6-((4-(((1,1,1,3,3,3-hexafluoropropan-2-yl)oxy)carbonyl)piperazin-1-yl)methyl)-3-methylphenyl)piperidine-4-carboxylic acid] | ≥ 75% | ≥ 75% | ≤ 0.1 µM | ≥ 75% |  | 1 to 10 µM | ≥ 75%
O=C(O)CN1CC2(CCN(c3cc(C(F)(F)F)ccc3CN3CCN(C(=O)OC(C(F)(F)F)C(F)(F)F)CC3)CC2)C1 [Example 21, 2-(7-(2-((4-(((1,1,1,3,3,3-Hexafluoropropan-2-yl)oxy)carbonyl)piperazin-1-yl)methyl)-5-(trifluoromethyl)phenyl)-2,7-diazaspiro[3.5]nonan-2-yl)acetic Acid] | 0 to 25% | ≥ 75% | ≤ 0.1 µM | ≥ 75% | ≤ 0.1 µM | 1 to 10 µM | 0 to 25%
O=C(OC(C(F)(F)F)C(F)(F)F)N1CCN(Cc2ccc(C(F)F)cc2C2(C(=O)O)CCCC2)CC1 [Example 27, 1-(5-(Difluoromethyl)-2-((4-(((1,1,1,3,3,3-hexafluoropropan-2-yl)oxy)carbonyl)piperazin-1-yl)methyl)phenyl)cyclopentane-1-carboxylic Acid] | ≥ 75% | ≥ 75% | ≤ 0.1 µM | ≥ 75% |  | 1 to 10 µM | 0 to 25%
O=C(OC(C(F)(F)F)C(F)(F)F)N1CCN(Cc2ccc(Cl)cc2C2(C(=O)O)CCCC2)CC1 [Example 26, 1-(5-Chloro-2-((4-(((1,1,1,3,3,3-hexafluoropropan-2-yl)oxy)carbonyl)piperazin-1-yl)methyl)phenyl)cyclopentane-1-carboxylic Acid] | ≥ 75% | ≥ 75% | ≤ 0.1 µM | ≥ 75% |  | 1 to 10 µM | 0 to 25%

Second part, the molecule after the results:

inhibition at 5 mg/kg (MAGL [1]) | inhibition at 1 µM (MAGL [2]) | IC50 (MAGL [2]) | inhibition at 1 µM (MAGL [3]) | IC50 (MAGL [3]) | IC50 (ABHD6 [4]) | inhibition at 1 µM (ABHD6 [5]) | SMILES
0 to 25% | ≥ 75% | 0.1 to 1 µM | ≥ 75% |  | 1 to 10 µM | 0 to 25% | O=C(O)CN1CCC(c2cc(C(F)(F)F)ccc2CN2CCN(C(=O)OC(C(F)(F)F)C(F)(F)F)CC2)CC1 [Example 31, 2-(4-(2-((4-(((1,1,1,3,3,3-Hexafluoropropan-2-yl)oxy)carbonyl)piperazin-1-yl)methyl)-5-(trifluoromethyl)phenyl)piperidin-1-yl)acetic Acid]
≥ 75% | ≥ 75% | ≤ 0.1 µM | ≥ 75% |  | 1 to 10 µM | 50 to 75% | CC1(C(=O)O)CCCN(c2cc(C(F)(F)F)ccc2CN2CCN(C(=O)OC(C(F)(F)F)C(F)(F)F)CC2)C1 (stereo not drawn) [Example 54, 1-(2-((4-(((1,1,1,3,3,3-hexafluoropropan-2-yl)oxy)carbonyl)piperazin-1-yl)methyl)-5-(trifluoromethyl)phenyl)-3-methylpiperidine-3-carboxylic acid]
25 to 50% | ≥ 75% | ≤ 0.1 µM | ≥ 75% |  | 1 to 10 µM | 50 to 75% | Cc1cc(C(=O)O)sc1-c1cc(C(F)(F)F)ccc1CN1CCN(C(=O)OC(C(F)(F)F)C(F)(F)F)CC1 [Example 9, 5-(2-((4-(((1,1,1,3,3,3-Hexafluoropropan-2-yl)oxy)carbonyl)piperazin-1-yl)methyl)-5-(trifluoromethyl)phenyl)-4-methylthiophene-2-carboxylic Acid]
≥ 75% | ≥ 75% | ≤ 0.1 µM | ≥ 75% |  | 1 to 10 µM | ≥ 75% | O=C(O)C1CCN(c2cc(S(F)(F)(F)(F)F)ccc2CN2CCN(C(=O)OC(C(F)(F)F)C(F)(F)F)CC2)CC1 [Example 78, 1-(2-((4-(((1,1,1,3,3,3-hexafluoropropan-2-yl)oxy)carbonyl)piperazin-1-yl)methyl)-5-(pentafluoro-16-sulfaneyl)phenyl)piperidine-4-carboxylic acid]
0 to 25% | ≥ 75% | ≤ 0.1 µM | ≥ 75% | ≤ 0.1 µM | 1 to 10 µM | 50 to 75% | O=C(O)CN1CCC2(CCN(c3cc(C(F)(F)F)ccc3CN3CCN(C(=O)OC(C(F)(F)F)C(F)(F)F)CC3)CC2)C1 [Example 18, 2-(8-(2-((4-(((1,1,1,3,3,3-Hexafluoropropan-2-yl)oxy)carbonyl)piperazin-1-yl)methyl)-5-(trifluoromethyl)phenyl)-2,8-diazaspiro[4.5]decan-2-yl)acetic Acid]
